Experimental findings from US20100298299A1, “NON-PEPTIDE DERIVATIVES AS BRADYKININ B1 ANTAGONISTS” (priority 2007, published 2010) are described below.

Test [1] has as its target T1, recombinant human B1 receptors (Homo sapiens, UniProt P46663).
T1 construct: host or cells: CHO (CHO-B1)
T1 sequence (P46663 1-353): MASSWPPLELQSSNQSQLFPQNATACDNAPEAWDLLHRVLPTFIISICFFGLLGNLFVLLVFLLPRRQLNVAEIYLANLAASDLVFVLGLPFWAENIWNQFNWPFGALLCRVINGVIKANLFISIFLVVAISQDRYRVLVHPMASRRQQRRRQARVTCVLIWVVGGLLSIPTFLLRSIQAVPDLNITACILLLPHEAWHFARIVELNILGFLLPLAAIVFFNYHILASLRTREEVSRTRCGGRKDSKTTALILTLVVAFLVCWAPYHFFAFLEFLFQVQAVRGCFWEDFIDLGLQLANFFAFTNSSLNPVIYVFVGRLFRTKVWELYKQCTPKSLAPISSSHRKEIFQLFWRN
The test can be described thus: Functional assay: antagonist potency by cytosolic calcium measurement in CHO-B1 cells. Format: cell-based. As to the method: Assessment of Antagonist Potency at B1 and B2 Receptors In Vitro by Measurement of Cytosolic Calcium Ion Concentration with a Plate Reader Fluorimeter in Cells Expressing Recombinant Human B1 or B2 Receptors
Chinese hamster ovary (CHO) cells stably expressing recombinant human B1 (CHO-B1, Euroscreen) or B2 (CHO-B2, Perkin-Elmer) receptors were cultured in Dulbecco's Modified Eagle's Medium (DMEM) containing 10% Fetal Calf Serum (FCS), 100 U/ml penicillin, 0.1 mg/ml streptomycin, 0.25 μg/ml amphotericin B, 1% Minimum Essential Medium Eagle (MEM), non essential amino acid solution, 600 μg/ml G418, 1% pyruvate (for the B2 cell line). Cells were kept at 37° C. in a humidified incubator in an atmosphere of 5% CO2/95% air and were passaged 1:4 three times a week. Cells were plated at 1.5−2.5×10^4 cell/well on standard 96-well microplates, measurements of cytosolic calcium ion concentration ([Ca^2+]i) were carried out 1-2 days after cell plating.
Measurements of [Ca^2+]i were carried out on CHO-B1 and CHO-B2 cells stably expressing human B1 and B2 receptors, respectively. Cells were grown in standard 96-well microplates and before the measurement were loaded with a fluorescent Ca^2+-sensitive dye, fluo-4/AM (2 μM): after removing the culture medium the dye was added to the cells (dissolved in assay buffer: 145 mM NaCl, 5 mM KCl, 2 mM MgCl2, 2 mM CaCl2, 10 mM HEPES, 20 mM D-glucose, 2 mM probenecid, 100 μl/well) and cells were incubated at 37° C. in a humidified incubator in an atmosphere of 5% CO2/95% air for 40-120 min. To stop dye loading cells were washed twice with assay buffer. After washing, various concentrations of the test compounds (diluted in extracellular medium from a DMSO stock solution, final DMSO concentration was <0.1%) or buffer were added to each well depending on the experimental setup. After incubation at 37° C. for 20-25 min. baseline and agonist-evoked changes of [Ca^2+]i were measured column by column with a plate reader fluorimeter (Fluoroskan Ascent, Labsystems). Excitation and detection of emission was carried out from the bottom of the plate. Filters used for Fluo-4: excitation filter—485 nm, emission filter—538 nm. The whole measurement process was performed at 37° C. and was controlled by custom software. Inhibitory potency of the test compounds was assessed by measuring the reduction in the agonist-evoked [Ca^2+]i-elevation in the presence of different concentrations of the compounds. The agonists were LysDABK for CHO-B1, and bradykinin for CHO-B2 cells. Agonists were applied at an EC80 concentration, the EC80-values were derived from daily determined dose-response curves. Fluorescence data were expressed as ΔF/F (fluorescence change normalized to baseline). All treatments on a single plate were measured in multiple wells. Data from all wells with the same treatment were averaged and the average values were used for analysis. Inhibitory potency of a compound at a single concentration point was expressed as percent inhibition of the control agonist response. Sigmoidal concentration-inhibition curves were fitted to the data (derived from at least three independent experiments) and IC50-values were determined as the concentration that produces half of the maximal inhibition caused by the compound.

The target of test [2] is T2, human recombinant bradykinin B1 receptor (Homo sapiens, UniProt P46663).
T2 construct: purchased Euroscreen ES-091; host or cells: CHO cells
T2 sequence (P46663 1-353): T1 sequence (P46663 1-353)
The test can be described thus: Human recombinant bradykinin B1 receptor binding. How it is done:
1. Human Recombinant Bradykinin B1 Receptor Binding
Binding assays were carried out on human recombinant bradykinin) receptors (expressed in CHO cells) according to the Euroscreen Technical Data Sheet (Cat. No.: ES-091). 20 μg protein/tube was incubated with [3,4-prolyl-3,4-^3H(N)]-[Des-Arg^10] Kallidin as radioligand. Non specific binding was determined in the presence of 10 μM Lys-des-Arg^9-Bradykinin. The final incubation volume was 250 μl. Samples were incubated for 15 min. at 25° C. then were rapidly vacuum filtered through GF/B filters presoaked for at least 1 h in 0.5% PEI. Radioactivity was determined by liquid scintillation spectroscopy.

[3] abbreviates: CHO-B1 cells, inhibition of LysDABK (EC80)-evoked [Ca2+]i elevation, read-out: B1 func.
Setting [4] is: CHO cell membranes, [3H]-[Des-Arg10] Kallidin radioligand, read-out: B1 binding.
Where [5] appears, read: reference compounds, functional test, read-out: IC50.
The mark [6] stands for this setting: reference compounds, binding test, read-out: Ki.

Structures can show the parent of a compound that is named as a salt. Where two headings read alike, the source gives them in different places.

On to `CN1CCC(N2CCN(C(=O)[C@H](Cc3ccc(O)cc3)NC(=O)c3ccc(S(=O)(=O)Nc4ccccc4Oc4ccccc4)cc3)CC2)CC1` [Example 37, (S)—N-{1-(4-Hydroxy-benzyl)-2-[4-(1-methyl-piperidin-4-yl)-piperazin-1-yl]-2-oxo-ethyl}-4-(2-phenoxy-phenylsulfamoyl)-benzamide], for which the IC50 in test [1] (setting [3]) was below 20 nM. Also, the Ki in test [2] (setting [4]) was below 20 nM.

On to `O=C(CNC(=O)c1ccc(S(=O)(=O)Nc2ccccc2Sc2ccccc2)cc1)NCC1CCNCC1` [Example 39, 4-(2-Phenylsulfanyl-phenylsulfamoyl)-N-{[(piperidin-4-ylmethyl)-carbamoyl]-methyl}-benzamide hydrochloride], for which the IC50 in test [1] (setting [3]) was below 20 nM. For the same compound, the Ki in test [2] (setting [4]) is below 20 nM.

Regarding `CN1CCN(C(=O)C2CCN(S(=O)(=O)c3ccc(NCC(c4ccccc4)c4ccccc4)c(C(=O)N4CCOCC4)c3)CC2)CC1` [NVP-SAA164, 4-{2-[(2,2-diphenyl-ethyl)-amino]-5-{4-[4-[(4-methyl-1-piperazinyl)-carbonyl]-1-piperidinyl]-sulfonyl}-benzoyl}-morfoline, reference compound], the IC50 in test [1] (setting [5]) amounted to 33 nM. Besides, in test [2] (setting [6]), the Ki turned out to be 8 nM.

As for `CCCN1C(=O)[C@H](NC(=O)Nc2ccc(N3CCC(N4CCCCC4)CC3)cc2)N=C(c2ccc(C)cc2)c2ccccc21` [compound 3, N-[4-(4′-bipiperidin)-1′-ylphenyl]-N′-[(3R)-2,3-dihydro-5-(4-methyl-phenyl)-2-oxo-1-propyl-1H-1,4-benzodiazepin-3-yl]-urea, reference compound], in test [1] (setting [5]), the IC50 was determined as 64.5 nM. In addition, in test [2] (setting [6]), the Ki turned out to be 13.4 nM.
